The term IC50 denotes the point on the concentration scale where inhibition reaches its midpoint. As usually defined, the melting point is the temperature of the solid-liquid transition. As a reminder, the Cmax is the peak of the concentration-time curve. Usually Tmax stands for the time at which the peak concentration occurs. By half-life is commonly meant the time in which the quantity being followed falls by half.

Each structure is given as a SMILES string. “Also recorded” adds a separate entry of the source. Like-named read-outs stand apart in the source and are kept apart here.

The test system of one data set is SARS-CoV-2. As to the kind of experiment: Anti-SARS-CoV-2 immunofluorescence assay in Vero cells. Format: cell-based. As to conditions: for IC50: Severe acute respiratory syndrome coronavirus 2, immunofluorescence, at least two independent experiments.
A short description of data set [1]: Cytotoxicity (CC50) in uninfected Vero cells. To be noted: African green monkey.
Data set [2] has as its system SARS-CoV-2 spike pseudo-typed lentivirus. As to the kind of experiment: microbe, parasite or virus in culture. It counts as cell-based. As to conditions: Severe acute respiratory syndrome coronavirus 2, NCI-H1299, 48 h; read-out: IC50 (SARS-CoV-2 spike pseudo-typed virus entry).
Data set [3] is described as follows: In vivo oral pharmacokinetics in Sprague Dawley rats. As to conditions: rat, blood, male Sprague Dawley rats, 10 mg/kg; for Cmax / Tmax / half-life: n = 3; for AUC(0-t): n = 3, read-out: AUC24h. As for the experimental part: Compounds 2a–c were selected for in vivo pharmacokinetic studies based on their ClogP and selectivity index (SI) values. Each compound was administered orally at 10 mg/kg to three Sprague Dawley rats (Figure 2). […] The lipophilic properties and the small size of the fluorine moieties likely enhance the absorption of compound 2b.
Figure 2 Pharmacokinetic evaluation of compounds 1a, 2a, 2b, and 2c. Each compound was orally administrated to male Sprague Dawley rats (n = 3) at 10 mg/kg. TEXT PRINTED IN THE PICTURE: 1a: Tmax (h): 2.50; Cmax (μg/mL): 0.87; T1/2 (h): 5.65; AUC24h (μg·h/mL): 6.62 | 2a: Tmax (h): 4.67; Cmax (μg/mL): 1.85; T1/2 (h): 4.95; AUC24h (μg·h/mL): 24.31 | 2b: Tmax (h): 4.00; Cmax (μg/mL): 5.56; T1/2 (h): 1.96; AUC24h (μg·h/mL): 41.57 | 2c: Tmax (h): 3.33; Cmax (μg/mL): 1.96; T1/2 (h): 6.69; AUC24h (μg·h/mL): 10.77

A short description of data set [4]: in vitro. To be noted: African green monkey.
The target of another data set is hERG K+ channel (Homo sapiens, UniProt Q12809). As to the kind of experiment: cell-based.
Chain of hERG K+ channel (Q12809 whole entry): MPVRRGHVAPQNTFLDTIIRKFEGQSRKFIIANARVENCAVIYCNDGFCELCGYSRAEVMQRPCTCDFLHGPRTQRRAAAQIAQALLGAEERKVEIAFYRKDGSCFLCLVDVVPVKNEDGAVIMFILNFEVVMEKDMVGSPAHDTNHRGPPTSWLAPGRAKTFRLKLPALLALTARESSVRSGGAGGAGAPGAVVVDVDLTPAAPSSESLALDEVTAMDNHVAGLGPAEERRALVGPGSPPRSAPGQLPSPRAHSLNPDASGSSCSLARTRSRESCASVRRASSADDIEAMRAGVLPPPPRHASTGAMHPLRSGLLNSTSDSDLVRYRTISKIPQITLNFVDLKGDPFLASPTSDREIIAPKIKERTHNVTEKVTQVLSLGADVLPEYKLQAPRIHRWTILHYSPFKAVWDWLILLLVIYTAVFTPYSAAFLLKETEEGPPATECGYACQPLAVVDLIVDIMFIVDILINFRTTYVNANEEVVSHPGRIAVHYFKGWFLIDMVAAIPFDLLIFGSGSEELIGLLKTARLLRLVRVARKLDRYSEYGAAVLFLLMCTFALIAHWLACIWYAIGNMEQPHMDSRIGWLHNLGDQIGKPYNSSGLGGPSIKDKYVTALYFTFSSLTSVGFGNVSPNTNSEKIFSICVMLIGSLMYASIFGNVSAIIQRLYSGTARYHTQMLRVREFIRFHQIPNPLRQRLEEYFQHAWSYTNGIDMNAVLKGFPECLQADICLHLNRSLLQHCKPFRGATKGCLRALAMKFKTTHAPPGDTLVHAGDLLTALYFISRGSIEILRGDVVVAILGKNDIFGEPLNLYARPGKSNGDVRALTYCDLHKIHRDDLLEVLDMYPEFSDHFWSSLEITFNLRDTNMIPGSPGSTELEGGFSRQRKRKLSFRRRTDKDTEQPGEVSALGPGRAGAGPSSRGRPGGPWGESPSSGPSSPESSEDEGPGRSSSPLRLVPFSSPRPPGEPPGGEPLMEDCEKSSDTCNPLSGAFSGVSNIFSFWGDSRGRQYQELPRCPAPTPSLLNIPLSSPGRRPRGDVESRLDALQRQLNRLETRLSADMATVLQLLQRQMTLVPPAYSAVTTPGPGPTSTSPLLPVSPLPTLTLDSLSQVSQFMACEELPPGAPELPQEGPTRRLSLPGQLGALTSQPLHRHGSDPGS
Data set [5] can be described thus: EZ-Cytox cell viability assay, NIH 3T3. As to conditions: mouse, Cytotoxicity (CC50) NIH 3T3, EZ-Cytox.
Data set [6] has as its system NIH 3T3, mouse embryonic fibroblast cells. As to the kind of experiment: EZ-Cytox cell viability assay, NIH 3T3. To be noted: read-out: Cytotoxicity (CC50) NIH 3T3; EZ-Cytox, 24 h.
The nature of data set [7]: in vitro. To be noted: Chinese hamster, Cytotoxicity (CC50) CHO-K1, EZ-Cytox, 24 h.
The nature of data set [8]: EZ-Cytox cell viability assay, L929. As to conditions: mouse, Cytotoxicity (CC50) L929, EZ-Cytox.
A short description of data set [9]: EZ-Cytox cell viability assay, HFL-1. As to conditions: human, Cytotoxicity (CC50) HFL-1, EZ-Cytox.
The nature of data set [10]: Microsomal stability assay, rat liver microsomes. As to conditions: percentage of original compound remaining after 30 min incubation, NADPH. A general note: Liver microsomes are a subcellular fraction often used to study metabolism.
A short description of data set [11]: Microsomal stability assay, human liver microsomes. As to conditions: percentage of original compound remaining after 30 min incubation, NADPH.
Details of data set [12]: method as in PMID 34914868, PMID 34914869. As to conditions: cited from earlier work.
Data set [13] is described as follows: In vivo single-dose toxicity in male Sprague Dawley rats. On the set-up: species or system rat. To be noted: for Clinical signs: animals with liquid feces: n = 4, recovered by day 4; for Body weight change: recovered on day 14. As for the experimental part:
After single administration using 55% PEG200 in distilled water as a vehicle, each group of four rats was monitored for 15 days. […] Therefore, the approximate lethal dose of compound 2b in this study was estimated to be more than 500 mg/kg.
Figure 3 Body weight changes in male rats (n = 4) treated with compound 2b in a single-dose toxicity study. ** p < 0.01, compared to the control at the same time point (Dunnett’s test).

The subject of another data set is Vero cells. As to conditions: Vero cell assay, previously reported; cited from earlier work.
The conditions of data set [14]: rats, oral, 10 mg/kg; ref previously reported; cited from earlier work.
Setting [15] is: CC50/IC50 for inhibiting SARS-CoV-2 infection, Vero cells.

In the case of `COC(=O)N(c1cc(Cl)cc(Cl)c1)c1nc2cc(Cl)ccc2c(=O)[nH]1` [Compound 6b, Methyl (7-Chloro-4-oxo-3,4-dihydroquinazolin-2-yl)(3,5-dichlorophenyl)carbamate], the melting point lay in the range of 218 to 220 °C. Moreover, inhibition in the data set on SARS-CoV-2 (Vero cells) was half-maximal at 7.05 µM (IC50). The same compound yielded a CC50 at 24 h in [1] (uninfected Vero cells) of more than 25 µM.

Take `CC(=O)N(c1cc(Cl)cc(Cl)c1)c1nc2cc(Cl)ccc2c(=O)[nH]1` [Compound 2a, N-(7-Dichloro-4-oxo-3,4-dihydroquinazolin-2-yl)-N-(3,5-dichlorophenyl)acetamide]: the melting point was in the range of 236 to 238 °C. Besides, the “SI (selectivity index)” value in the data set on SARS-CoV-2 came to 26. In the data set with SARS-CoV-2 (Vero cells), this compound gave a half-inhibitory concentration (IC50) of 0.33 µM. For the same compound, the 50% inhibitory concentration (IC50) in data set [2] was found to be 0.54 µM. Also, in data set [3], the highest level (Cmax) was 1.85 µg/mL, the Tmax turned out to be 4.67 h, the half-life is 4.95 h and the AUC(0-t) came out at 24.3 µg·h/mL. This compound showed a CC50 at 24 h in the data set “in vitro [4]” of 9.39 µM. Half-maximal inhibition against hERG K+ channel (IC50) was put at 15.2 µM. In data set [5], this compound yielded a CC50 at 24 h of less than 10 µM. For the same compound, the CC50 in data set [6] is 7.6 µM.

In the case of `CC(=O)N(c1cc(Cl)cc(Cl)c1)c1nc2cccc(O)c2c(=O)[nH]1` [Compound 2c, N-(3,5-Dichlorophenyl)-N-(5-hydroxy-4-oxo-3,4-dihydroquinazolin-2-yl)acetamide], the results for the concentration for half-maximal inhibition (IC50) in the data set with SARS-CoV-2 (Vero cells) and at hERG K+ channel were 0.11 µM and more than 50 µM, respectively. In data set [3], this compound yielded a Cmax of 1.96 µg/mL. For the same compound, the time to peak (Tmax) in data set [3] was found to be 3.33 h. In data set [3], this compound showed a half-life of 6.69 h. Also, the AUC(0-t) in data set [3] was 10.8 µg·h/mL. The CC50 at 24 h in “in vitro [4]” is more than 25 µM; in data set [8] it was 42.7 µM; in data set [9] it was 13.7 µM; in [5], 59.9 µM. The CC50 in “in vitro [7]” came to 17.1 µM. In addition, the “Microsomal Stability (%) Rat” value in [10] is reported as 57%. For the same compound, the “Microsomal Stability (%) Human” value in data set [11] was determined as 10%.

As to `CC(C)C(=O)OC[C@H]1O[C@@H](n2ccc(NO)nc2=O)[C@H](O)[C@@H]1O` [molnupiravir], the “Incidence of hospitalization or death at day 29” value in [12] (48 out of 709 patients) is reported as 6.8%. Besides, the “Reduction in COVID-19-related hospitalization or death” value in [12] (versus placebo) is recorded as 30%.

As for `CC(=O)N(c1cc(F)cc(F)c1)c1nc2cc(Cl)ccc2c(=O)[nH]1` [Compound 2b, N-(7-Chloro-4-oxo-3,4-dihydroquinazolin-2-yl)-N-(3,5-difluorophenyl)acetamide], the half-inhibitory concentration (IC50) in the data set on SARS-CoV-2 (Vero cells) amounted to 0.29 µM; in [2], 0.99 µM; at hERG K+ channel, 30 µM. In [3], this compound returned a maximum concentration (Cmax) of 5.56 µg/mL. Also, the Tmax in data set [3] was determined as 4 h. In data set [3], this compound showed a half-life of 1.96 h. Also, the AUC(0-t) in [3] is 41.6 µg·h/mL. The “Clinical signs: animals with liquid feces” value was “one animal” in [13] (250 mg/kg group) and “two animals” in data set [13] (500 mg/kg group). For the same compound, the Body weight change result in [13] (250 mg/kg, day 4, Dunnett's test) is recorded as “statistically significant reduction”; in [13] (500 mg/kg, days 4 and 8, Dunnett's test), “statistically significant reduction”. Also, the “Gross observations of the organs” value in [13] (250 and 500 mg/kg) was “did not reveal changes in any of the organs examined”. In data set [13] (single oral dose 250 and 500 mg/kg, monitored 15 days), the Mortality entry is recorded as “no deaths; also recorded: no mortality; also recorded: no animals died”. For the same compound, the Approximate lethal dose result in data set [13] (single oral dose, male rats) is recorded as “greater than 500 mg/kg”. Besides, the CC50 at 24 h in the data set “in vitro [4]” is more than 25 µM; in [8], 17.9 µM; in data set [9] it was 12.6 µM; in [5] it was 22.7 µM. The compound further registered a CC50 in “in vitro [7]” of 14.6 µM.

In the case of `O=C(CO)N(c1cc(Cl)cc(Cl)c1)c1nc2cc(Cl)ccc2c(=O)[nH]1` [Compound 8, N-(7-Chloro-4-oxo-3,4-dihydroquinazolin-2-yl)-N-(3,5-dichlorophenyl)-2-hydroxy-acetamide], the melting point lay in the range of 263 to 265 °C. Also, the “SI (selectivity index)” value in the data set on SARS-CoV-2 (setting [15]) was more than 10. The compound further had an IC50 with SARS-CoV-2 (Vero cells) of 2.57 µM. Moreover, the CC50 at 24 h in the data set “in vitro [4]” was more than 25 µM.

Compound `CCC(=O)N(c1cc(Cl)cc(Cl)c1)c1nc2cc(Cl)ccc2c(=O)[nH]1` [Compound 6a, N-(7-Chloro-4-oxo-3,4-dihydroquinazolin-2-yl)-N-(3,5-dichlorophenyl)propionamide] returned a melting point of 223 to 225 °C. Moreover, the “SI (selectivity index)” value in the data set with SARS-CoV-2 (setting [15]) is more than 117. In addition, in the data set on SARS-CoV-2 (Vero cells), the 50% inhibitory concentration (IC50) came out at 0.21 µM. This compound yielded a CC50 at 24 h in the data set “in vitro [4]” of more than 25 µM.

As for `O=c1[nH]c(Nc2cc(F)cc(F)c2)nc2cc(Cl)ccc12` [Compound 1b, 7-Chloro-2-((3,5-difluorophenyl)amino)quinazolin-4(3H)-one], in the data set with SARS-CoV-2 (setting [15]), the “SI (selectivity index)” value is given as 74. The IC50 with SARS-CoV-2 (Vero cells) is 0.24 µM. The compound further came in with a CC50 at 24 h in “in vitro [4]” of 18 µM.

With `O=c1[nH]c(Nc2cc(Cl)cc(Cl)c2)nc2cccc(O)c12` [Compound 5c, 2-((3,5-Dichlorophenyl)amino)-5-hydroxyquinazolin-4(3H)-one], the melting point was more than 300 °C. The “SI (selectivity index)” value in the data set on SARS-CoV-2 (setting [15]) is more than 168. Also, the IC50 with SARS-CoV-2 (Vero cells) turned out to be 0.15 µM. This compound also showed a CC50 at 24 h in the data set “in vitro [4]” of more than 25 µM.

Take `CN(c1cc(Cl)cc(Cl)c1)c1nc2cc(Cl)ccc2c(=O)[nH]1` [Compound 6c, 7-Chloro-2-((3,5-dichlorophenyl)(methyl)amino)quinazolin-4(3H)-one]: the melting point was in the range of 287 to 289 °C. Also, inhibition with SARS-CoV-2 (Vero cells) was half-maximal at 5.66 µM (IC50). This compound returned a CC50 at 24 h in “in vitro [4]” of more than 25 µM.

Consider `CCC(CC)COC(=O)[C@H](C)N[P@](=O)(OC[C@H]1O[C@@](C#N)(c2ccc3c(N)ncnn23)[C@H](O)[C@@H]1O)Oc1ccccc1` [Remdesivir, reference compound], for which the “SI (selectivity index)” value in the data set on SARS-CoV-2 was more than 14. Further, 3.47 µM corresponded to half-maximal inhibition with SARS-CoV-2 (Vero cells) (IC50). The compound further gave a CC50 at 24 h in data set [1] of more than 50 µM.

As to `O=C(C(O)OCc1ccccc1)N(c1cc(Cl)cc(Cl)c1)c1nc2cc(Cl)ccc2c(=O)[nH]1` (stereo not shown), the melting point fell in the range of 282 to 284 °C.

With `O=C1CC2(CCCC2)CC(=O)N1CCCCN1CCN(c2ncccn2)CC1` [buspirone, reference compound], the “Microsomal Stability (%) Rat” value in [10] is reported as less than 5%. Besides, the “Microsomal Stability (%) Human” value in data set [11] is less than 10%.

For the compound `O=c1[nH]c(Nc2cc(Cl)cc(Cl)c2)nc2cc(Cl)ccc12` [Compound 1a, 7-Chloro-2-((3,5-dichlorophenyl)amino)quinazolin-4(3H)-one], the IC50 with SARS-CoV-2 (Vero cells) came to 0.23 µM. Moreover, in the data set “in vitro [4]”, the CC50 at 24 h was more than 25 µM. The Cytotoxicity entry in the data set on Vero cells is “no cytotoxicity”. Besides, in data set [14], the AUC24h was 6.62 µg·h/mL and the peak concentration (Cmax) was 0.87 µg/mL.

Take `Cc1ccc(S(=O)(=O)N(c2cc(Cl)cc(Cl)c2)c2nc3cc(Cl)ccc3c(=O)[nH]2)cc1` [Compound 6d, N-(7-Chloro-4-oxo-3,4-dihydroquinazolin-2-yl)-N-(3,5-dichlorophenyl)-4-methylben-zenesulfonamide]: the melting point was in the range of 163 to 165 °C. In the data set with SARS-CoV-2 (setting [15]), the “SI (selectivity index)” value is listed as more than 44. The compound further yielded a 50% inhibitory concentration (IC50) with SARS-CoV-2 (Vero cells) of 0.57 µM. The compound further yielded a CC50 at 24 h in “in vitro [4]” of more than 25 µM.

The record behind these values is paper PMC9318802, “Optimization of 2-Aminoquinazolin-4-(3H)-one Derivatives as Potent Inhibitors of SARS-CoV-2: Improved Synthesis and Pharmacokinetic Properties” (Pharmaceuticals, 2022).
